The text below walks through data of patent US20250296988A1, “COMBINATION THERAPY” (ViiV Healthcare Company, priority 2020, published 2025).

Test [1] concerns broad range of HIV-1 strains. The conditions noted are these: cited from earlier work.
A further test concerns HIV-1NL4-3. The test is described as follows: Two-drug combination anti-HIV cytoprotection assay in MT-4 cells (MTS endpoint, MacSynergy II analysis). The class given is cell-based. As to the method: Provided below is an evaluation of the anti-HIV-1 activity and cytotoxicity of N6LS in two drug combination studies with Cabotegravir. N6LS was produced using standard methods described in the art. Stock solutions were prepared as listed in Table 4 and were thawed at room temperature on each day of assay setup to generate fresh working drug dilutions that were used that day in the assays. Working dilutions were not stored for re-use in subsequent experiments performed on different days. For each combination assay, N6LS was evaluated using a 20 nM high-test concentration with seven additional serial half-log dilutions. Each dilution of N6LS was tested in combination with five dilutions of the anti-HIV drug, Cabotegravir. In all cases the final DMSO concentration was <0.25%, which has been previously shown to have no effect in the described assays.
For cell preparation, MT-4 cells (obtained from the NIH AIDS Research and Reference Reagent Program) were passaged in T-75 flasks prior to use in the antiviral assay. On the day preceding the assay, the cells were split 1:2 to assure they were in an exponential growth phase at the time of infection. Total cell and viability quantification were performed using a hemacytometer and trypan blue exclusion. Cell viability needed to be greater than 95% for the cells to be utilized in the assay. The cells were re-suspended in tissue culture medium and added to the drug-containing microtiter plates in a volume of 110 μL and at a seeding density of 5.0×10^3 cells/well.
For virus preparation, the virus used for these tests was the CXCR4-tropic virus strain HIV-1NL4-3. This virus was obtained from the NIH AIDS Research and Reference Reagent Program and was grown in MT-4 cells for the production of stock virus pools. For each assay, a pre-titered aliquot of virus was removed from the freezer (−80° C.) and allowed to thaw slowly to room temperature in a biological safety cabinet. The virus was re-suspended and diluted into tissue culture medium such that the amount of virus added to each well, in a volume of 50 μL, was the amount determined to give between 85 to 95% cell-killing at 6 days post infection.
For Plate Format, a checkerboard plate format was used to test five concentrations of Cabotegravir with eight concentrations of N6LS. Combination antiviral efficacy was evaluated on three identical assay plates (i.e., triplicate measurements) that included cell control wells (cells only) and virus control wells (cells plus virus). Combination cytotoxicity was evaluated in parallel on two identical assay plates (i.e., duplicate measurements) that included cell control wells. Antiviral efficacy and cellular toxicity were monitored by MTS staining at the experimental endpoint.
For MTS Endpoint for cell viability, at assay termination, the soluble tetrazolium-based dye MTS (CellTiter 96 Reagent, Promega) was added to each well to determine cell viability and quantify compound toxicity. MTS is metabolized by the mitochondria enzymes of metabolically active cells to yield a soluble formazan product, allowing the rapid quantitative analysis of cell viability and compound cytotoxicity. […] At termination of the assay, 20 μL of MTS reagent was added per well and the microtiter plates were then incubated for 3-4 hours at 37° C., 5% CO2 for the HIV cytoprotection assay; the incubation intervals were chosen based on empirically determined times for optimal MTS reduction. Adhesive plate sealers were used in place of the lids, the sealed plates were inverted several times to mix the soluble formazan product and the plates were read spectrophotometrically at 490/650 nm with a Molecular Devices SpectraMax i3 plate reader.
Combination antiviral assays were performed with MT-4 cells utilizing HIV-1NL4-3, as described above. For each combination assay, five concentrations of Cabotegravir were tested with eight concentrations of N6LS. […]

Setting [2] is: in combination with N6LS, 95% confidence values, experiment 1.
Where [3] appears, read: in combination with N6LS, 95% confidence values, experiment 2.
Where [4] appears, read: in combination with N6LS, 95% confidence values, experiment 3.
[5] abbreviates: in combination with N6LS, 95% confidence values, n = 3.

For the compound `C[C@H]1CO[C@@H]2Cn3cc(C(=O)NCc4ccc(F)cc4F)c(=O)c(O)c3C(=O)N12` [Cabotegravir, N-((2,4-Difluorophenyl)methyl)-6-hydroxy-3-methyl-5,7-dioxo-2,3,5,7,11,11a hexahydro (1,3) oxazolo (3,2-a)pyrido (1,2-d) pyrazine-8-carboxamide], the “potency and antiviral activity” value in test [1] was “subnanomolar potency”. Also, the “Drug-drug interaction of the combination” value in the test with HIV-1NL4-3 (combination of N6LS with Cabotegravir) is recorded as “mainly synergistic or additive interactions”. For the same compound, in the test on HIV-1NL4-3 (setting [2]), the “Antagonism Volume, Result 1” value is listed as −45.27 nM^2% and the “Synergy Volume, Result 1” value turned out to be 2.32 nM^2%. Moreover, in the test with HIV-1NL4-3 (setting [3]), the “Antagonism Volume, Result 2” value amounted to 0 nM^2% and the “Synergy Volume, Result 2” value was 187.5 nM^2%. Further, in the test with HIV-1NL4-3 (setting [4]), the “Antagonism Volume, Result 3” value is given as −39.56 nM^2% and the “Synergy Volume, Result 3” value is listed as 61.7 nM^2%. In addition, in the test with HIV-1NL4-3 (setting [5]), the “Mean Antagonism Volume” value is −28.28 nM^2 and the “Mean Synergy Volume” value came out at 83.84 nM^2.
